Test results taken from patent publication US10781224B2, “Bis(oxymethyl)phosphinic acid and biogenic metal salts thereof as regulators of plant growth and development” (priority 2016, dated 2020).
“And” between values parts separate entries of the source, which are not always exact repeats. Equal values may be shown once.

How the values were obtained:
[1] = system: winter wheat (Vershin variety); experiment: Winter wheat seed treatment with BHMPA salts: germinating power (length and mass of roots and sprouts); assay type: in vivo
Method: (§1) Experimental versions—soaking seeds in BHMPA solutions and solutions of BHMPA Ca, Mg, Na, Co, Mn, Cu, and Zn salts at 1·10^−6-1·10^−12% concentrations (doses). The studies were conducted in laboratory in Petri dishes; seed bed—two layers of filter paper. 50 seeds soaked in water (control) and in the solutions of the tested compounds (experimental) were placed into each dish. Wheat, corn, and rice seeds were exposed for one hour.
(§2) Seed germination energy and rate were calculated in percent as an arithmetic mean of the four experimental results (germination energy on the 4th day, wheat germination on the 8th day, rice and corn germination—on the 7th day). Germination was determined based on the germinating power indicators (length of the roots and sprouts and their wet and dry mass per 100 shoots).
(§3) The effect of pre-sowing seed treatment with the claimed BHMPA salts of biogenic metals was studied on winter wheat (Vershin variety), corn (Krasnodar 385 MV variety), and rice (Diamant variety).
The above data describe the seed viability only at the initial stage of germination, while the germination ability at the later stage of germination is defined by the initial germinating power. The method for the determination of the germinating power comprises measuring the height of the sprouts and primary roots, as well as the biomass and the dry mass thereof per 100 seedlings. [M. A. Kartuzova. Initial Germinating Power as Method of Biological Assessment of Seed Quality. Selection and Seed Farming, #2, 1953].

rice (Diamant variety) = experiment: Rice seed treatment with BHMPA salts: germination energy and germination rate; assay type: in vivo; conditions: for Germination energy / Germination rate: rice
Method: Control—Soaking Seeds in Water;
as §1
Analysis was conducted according to the government standards GOST 12038-84 “Crop seeds. Technical conditions for determining the germination energy and germination rate”, GOST 12044-93 “Crop seeds. Methods for determining disease contamination.”
as §2, §3

[2] = comparative study, 1·10^−9% solution
[3] = rice seed treatment, solution 1 · 10^−10%
[4] = comparative study vs Melaphen, 1·10^−8% solution

## Copper BHMPA Salt [Cu-salt]
[1]; 1·10^−6% and 1·10^−12% solutions
  effectiveness on germinating power: weren't effective
[1]; 1·10^−6% solution
  Length, root: 4.6 cm
  Length, root, + % to control: −4%
  Length, sprout: 3.8 cm
  Length, sprout, + % to control: −5%
  Mass, dry, root: 0.41 g/100 plantlings
  Mass, dry, root, + % to control: −2%
  Mass, dry, sprout: 0.35 g/100 plantlings
  Mass, dry, sprout, + % to control: −5%
  Mass, wet, root: 2.61 g/100 plantlings
  Mass, wet, root, + % to control: −7%
  Mass, wet, sprout: 2.70 g/100 plantlings
  Mass, wet, sprout, + % to control: 1.5%
[1]; 1·10^−7% solution
  Length, root: 4.9 cm
  Length, root, + % to control: 2%
  Length, sprout: 4.0 cm
  Length, sprout, + % to control: 0%
  Mass, dry, root: 0.44 g/100 plantlings
  Mass, dry, root, + % to control: 2%
  Mass, dry, sprout: 0.40 g/100 plantlings
  Mass, dry, sprout, + % to control: 8%
  Mass, wet, root: 3.35 g/100 plantlings
  Mass, wet, root, + % to control: 19%
  Mass, wet, sprout: 3.05 g/100 plantlings
  Mass, wet, sprout, + % to control: 15%
[1]; 1·10^−8% solution
  Length, root: 5.1 cm
  Length, root, + % to control: 6%
  Length, sprout: 4.1 cm
  Length, sprout, + % to control: 2.5%
  Mass, dry, root: 0.47 g/100 plantlings
  Mass, dry, root, + % to control: 9%
  Mass, dry, sprout: 0.46 g/100 plantlings
  Mass, dry, sprout, + % to control: 24%
  Mass, wet, root: 3.68 g/100 plantlings
  Mass, wet, root, + % to control: 31%
  Mass, wet, sprout: 3.22 g/100 plantlings
  Mass, wet, sprout, + % to control: 21%
[1]; 1·10^−9% solution
  Length, root: 5.6 cm
  Length, root, + % to control: 17%
  Length, sprout: 4.7 cm
  Length, sprout, + % to control: 17% and 17.5%
  Mass, dry, root: 0.60 g/100 plantlings
  Mass, dry, root, + % to control: 39.5%
  Mass, dry, sprout: 0.50 g/100 plantlings
  Mass, dry, sprout, + % to control: 35%
  Mass, wet, root: 4.13 g/100 plantlings
  Mass, wet, root, + % to control: 47%
  Mass, wet, sprout: 3.61 g/100 plantlings
  Mass, wet, sprout, + % to control: 36%
[1]; 1·10^−10% solution
  Length, root: 5.3 cm
  Length, root, + % to control: 10%
  Length, sprout: 4.4 cm
  Length, sprout, + % to control: 10%
  Mass, dry, root: 0.49 g/100 plantlings
  Mass, dry, root, + % to control: 14%
  Mass, dry, sprout: 0.48 g/100 plantlings
  Mass, dry, sprout, + % to control: 30%
  Mass, wet, root: 3.75 g/100 plantlings
  Mass, wet, root, + % to control: 33.5%
  Mass, wet, sprout: 3.34 g/100 plantlings
  Mass, wet, sprout, + % to control: 25.5%
[1]; 1·10^−11% solution
  Length, root: 5.1 cm
  Length, root, + % to control: 6%
  Length, sprout: 4.1 cm
  Length, sprout, + % to control: 2.5%
  Mass, dry, root: 0.46 g/100 plantlings
  Mass, dry, root, + % to control: 7%
  Mass, dry, sprout: 0.46 g/100 plantlings
  Mass, dry, sprout, + % to control: 24%
  Mass, wet, root: 3.44 g/100 plantlings
  Mass, wet, root, + % to control: 11%
  Mass, wet, sprout: 3.20 g/100 plantlings
  Mass, wet, sprout, + % to control: 20%
[1]; 1·10^−12% solution
  Length, root: 4.8 cm
  Length, root, + % to control: 0%
  Length, sprout: 4.0 cm
  Length, sprout, + % to control: 0%
  Mass, dry, root: 0.41 g/100 plantlings
  Mass, dry, root, + % to control: −2%
  Mass, dry, sprout: 0.42 g/100 plantlings
  Mass, dry, sprout, + % to control: 13.5%
  Mass, wet, root: 3.01 g/100 plantlings
  Mass, wet, root, + % to control: 7%
  Mass, wet, sprout: 2.92 g/100 plantlings
  Mass, wet, sprout, + % to control: 10%
[1]; [2]
  Length, root: 10.9 cm
  Length, root, + % to control: 25%
  Length, sprout: 7.2 cm
  Length, sprout, + % to control: 16%
  Mass, dry, root: 0.67 g/100 plantlings
  Mass, dry, root, + % to control: 8%
  Mass, dry, sprout: 0.59 g/100 plantlings
  Mass, dry, sprout, + % to control: 16%
  Mass, wet, root: 5.45 g/100 plantlings
  Mass, wet, root, + % to control: 51%
  Mass, wet, sprout: 5.00 g/100 plantlings
  Mass, wet, sprout, + % to control: 26%
Rice (Diamant variety); [3]
  Germination energy, %: 88.0%
  Germination rate, %: 96.0%
Rice (Diamant variety); 1·10^−6% solution
  Germination energy: 81.7%
  Germination rate: 88.3%
Rice (Diamant variety); 1·10^−7% solution
  Germination energy: 84.3%
  Germination rate: 90.0%
Rice (Diamant variety); 1·10^−8% solution
  Germination energy: 85.7%
  Germination rate: 92.0%
Rice (Diamant variety); 1·10^−9% solution
  Germination energy: 87.7%
  Germination rate: 94.0%
Rice (Diamant variety); 1·10^−10% solution
  Germination energy: 84.7%
  Germination rate: 96.7%
Rice (Diamant variety); 1·10^−10% solution, listed as Cu
  Germination energy: 88.7%
Rice (Diamant variety); 1·10^−11% solution
  Germination energy: 85.7%
  Germination rate: 94.3%
Rice (Diamant variety); 1·10^−12% solution
  Germination energy: 82.0%
  Germination rate: 87.7%
Rice (Diamant variety); [4]
  Germination energy: 88.0%
  Germination rate: 96.0%
